Measurements published in US8008525B2, “Receptor function regulating agent” (Takeda Pharmaceutical Company Limited, priority 2003, dated 2011).

These compounds were tested against T1, human 14273 receptor (Homo sapiens, UniProt Q5NUL3) (assay: Test Example 1: regulating effect for 14273 receptor function (agonist effect), change in intracellular calcium level by FLIPR). Details: CHO cell line (No. 104) expressing human 14273 receptor, change of fluorescent intensity after 35 seconds.
T1 construct: expressed in transfected cells
T1 sequence (Q5NUL3 1-361): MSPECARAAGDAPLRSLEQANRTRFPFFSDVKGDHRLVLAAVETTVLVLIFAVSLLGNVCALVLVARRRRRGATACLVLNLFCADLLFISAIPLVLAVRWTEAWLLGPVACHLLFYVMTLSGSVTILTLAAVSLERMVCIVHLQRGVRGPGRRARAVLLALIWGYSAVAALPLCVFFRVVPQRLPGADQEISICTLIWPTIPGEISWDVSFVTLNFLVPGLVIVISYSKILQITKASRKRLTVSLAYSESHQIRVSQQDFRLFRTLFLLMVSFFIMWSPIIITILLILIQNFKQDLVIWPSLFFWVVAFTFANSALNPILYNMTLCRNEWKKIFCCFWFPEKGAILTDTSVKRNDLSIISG
Type: cell-based
Experimental: CHO cell lines (No. 104) in which a human 14273 receptor has expressed was diluted to contain 3×10^4/100 μl cells, and dispensed in Black walled 96-well plate (Costar) at a density of 100 μl/well, followed by culturing overnight in a CO2 incubator. A change in intracellular calcium level was measured using FLIPR (Molecular Device). The method is described as below. 50 μg of Fluo-3AM (DOJIN) was dissolved in 21 μl of DMSO (DOJIN) and an equal volume of 20% pluronic acid (Molecular Probes) was added thereto, followed by mixing them. The mixture was added to 10.6 ml of the assay buffer [which is prepared by adding 10 ml of a solution, which is prepared by adding 20 ml of 1 M HEPES (pH 7.4, DOJIN) to 1 L of HBSS (Invitrogen), dissolving 710 mg of probenecid (Sigma) in 5 ml of 1 N NaOH, and further adding 5 ml of the above-mentioned HBSS/HEPES solution and mixing it.] supplemented with 105 μl of fetal bovine serum to prepare a fluorescent dye solution. The medium of the cell plate was removed, the fluorescent dye solution was dispensed in 100 μl each per well. The culturing was performed in a CO2 incubator for 1 hour to incorporate the fluorescent dye into the cells. The cells after culturing were washed with the assay buffer. The compounds to be added to the cells were diluted to each concentration with a buffer solution to which CHAPS (DOJIN) was added in 0.015%, and dispensed in a plate for the test sample. Following the pretreatment above, a change in intracellular calcium level after addition of the compound was determined with FLIPR to investigate the agonist effect. An EC50 value was calculated from dose-reaction curve using the change of fluorescent intensity after 35 seconds from the reaction initiation.

EC50, ≤ 10 µM:
CC(C)COc1ccccc1COc1c(F)cc(CCC(=O)O)cc1F [Example 32, 3-{3,5-difluoro-4-[(2-isobutoxybenzyl)oxy]phenyl}propanoic acid]
Cc1cccc(Oc2cccc(COc3ccc(CCC(=O)O)cc3F)c2)c1 [Example 169, 3-(3-fluoro-4-{[3-(3-methylphenoxy)benzyl]oxy}phenyl)propanoic acid]
O=C(O)CCc1ccc(OCc2ccccc2Oc2ccccc2)cc1 [Reference Example 30, 4-[(2-Phenoxyphenyl)methoxy]benzenepropanoic acid]
COc1ccc2c(c1)C(Oc1ccc(CCC(=O)O)cc1)C(C)(C)C2 (centres unmarked) [Reference Example 44, 4-[(2,3-Dihydro-6-methoxy-2,2-dimethyl-1H-inden-1-yl)oxy]benzenepropanoic acid]
CC1(C)Cc2ccc(Cl)cc2C1Oc1ccc(CCC(=O)O)cc1 (centres unmarked) [Reference Example 47, 4-[(6-Chloro-2,3-dihydro-2,2-dimethyl-1H-inden-1-yl)oxy]benzenepropanoic acid]
O=C(O)CCc1cc(F)c(OCc2cccc(Oc3ccc(F)cc3)c2)c(F)c1 [Example 54, 3-(3,5-difluoro-4-{[3-(4-fluorophenoxy)benzyl]oxy}phenyl)propanoic acid]
O=C(O)CCc1ccc(OCc2ccccc2Oc2ccccc2)c(F)c1 [Example 18, 3-Fluoro-4-[(2-phenoxyphenyl)methoxy]benzenepropanoic acid]
O=C(O)CCc1cc(F)c(OCc2ccccc2OC2CCCCC2)c(F)c1 [Example 36, 3-(4-{[2-(cyclohexyloxy)benzyl]oxy}-3,5-difluorophenyl)propanoic acid]
CC(C)Oc1ccccc1COc1c(F)cc(CCC(=O)O)cc1F [Example 34, 3-{3,5-difluoro-4-[(2-isopropoxybenzyl)oxy]phenyl}propanoic acid]
O=C(O)CCc1cc(F)c(OCc2ccccc2N2CCCCC2)c(F)c1 [Example 44, 3-{3,5-difluoro-4-[(2-piperidin-1-ylbenzyl)oxy]phenyl}propanoic acid]
O=C(O)CCc1ccc(OCc2ccccc2-c2ccccc2)c(F)c1 [Example 22, 4-([1,1′-Biphenyl]-2-ylmethoxy)-3-fluorobenzenepropanoic acid]
CC(C)COc1cccc(COc2c(F)cc(CCC(=O)O)cc2F)c1 [Example 135, 3-{3,5-difluoro-4-[(3-isobutoxybenzyl)oxy]phenyl}propanoic acid]
COc1cccc(COc2c(F)cc(CCC(=O)O)cc2F)c1 [Example 6, 3,5-Difluoro-4-[(3-methoxyphenyl)methoxy]benzenepropanoic acid]
Cc1ccc(Oc2cccc(COc3c(F)cc(CCC(=O)O)cc3F)c2)cc1 [Example 56, 3-(3,5-difluoro-4-{[3-(4-methylphenoxy)benzyl]oxy}phenyl)propanoic acid]
O=C(O)CCc1ccc(OC2CCCc3ccccc32)cc1 (centres unmarked) [Reference Example 20, 4-[(1,2,3,4-Tetrahydronaphthalen-1-yl)oxy]benzenepropanoic acid]
O=C(O)CCc1cc(F)c(OCc2cccc(Oc3cccs3)c2)c(F)c1 [Example 64, 3-(3,5-difluoro-4-{[3-(2-thienyloxy)benzyl]oxy}phenyl)propanoic acid]
CC(C)Oc1cccc(COc2c(F)cc(CCC(=O)O)cc2F)c1 [Example 10]
O=C(O)CCc1ccc(OCc2cccc(Oc3ccccc3)c2)c(F)c1 [Example 12, 3-Fluoro-4-[(3-phenoxyphenyl)methoxy]benzenepropanoic acid]
CCOc1cccc(COc2ccc(CCC(=O)O)cc2F)c1 [Example 188, 3-{4-[(3-ethoxybenzyl)oxy]-3-fluorophenyl}propanoic acid]
Cc1cc(CCC(=O)O)ccc1OCc1cccc(Oc2ccccc2)c1 [Example 173, 3-(3-methyl-4-[(3-phenoxybenzyl)oxy]phenyl)propanoic acid]
O=C(O)CCc1ccc(OCc2cc(O)cc(Oc3ccccc3)c2)c(F)c1 [Example 118, 3-{3-fluoro-4-[(3-hydroxy-5-phenoxybenzyl)oxy]phenyl}propanoic acid]
O=C(O)CCc1ccc(OCc2cccc(Oc3ccccc3)c2)c(Cl)c1 [Example 4, 3-Chloro-4-[(3-phenoxyphenyl)methoxy]benzenepropanoic acid]
Cc1cc(CCC(=O)O)ccc1OCc1cccc(OC(C)C)c1 [Example 178, 3-{4-[(3-isopropoxybenzyl)oxy]-3-methylphenyl}propanoic acid]
O=C(O)CCc1cc(F)c(OCc2ccccc2OC2CCCC2)c(F)c1 [Example 28, 3-(4-{[2-(cyclopentyloxy)benzyl]oxy}-3,5-difluorophenyl)propanoic acid]
Cc1ccccc1COc1c(F)cc(CCC(=O)O)cc1F [Example 42, 3-{3,5-difluoro-4-[(2-methylbenzyl)oxy]phenyl}propanoic acid]
O=C(O)CCc1cc(F)c(OCc2cccc(OC3CCCCC3)c2)c(F)c1 [Example 52, 3-(4-{[3-(cyclohexyloxy)benzyl]oxy}-3,5-difluorophenyl)propanoic acid]
O=C(O)CCc1cc(F)c(OCc2cccc(Oc3ccccn3)c2)c(F)c1 [Example 60, 3-(3,5-difluoro-4-{[3-(pyridin-2-yloxy)benzyl]oxy}phenyl)propanoic acid]
COc1ccc(Oc2cccc(COc3c(F)cc(CCC(=O)O)cc3F)c2)cc1 [Example 46, 3-(3,5-difluoro-4-{[3-(4-methoxyphenoxy)benzyl]oxy}phenyl)propanoic acid]
Cc1ccc(Oc2cccc(COc3ccc(CCC(=O)O)cc3F)c2)cc1 [Example 171, 3-(3-fluoro-4-{[3-(4-methylphenoxy)benzyl]oxy}phenyl)propanoic acid]
O=C(O)CCc1cc(F)c(OCc2cccc(Oc3ccsc3)c2)c(F)c1 [Example 62, 3-(3,5-difluoro-4-{[3-(3-thienyloxy)benzyl]oxy}phenyl)propanoic acid]
CCOc1cccc(COc2ccc(CCC(=O)O)cc2F)c1C [Example 208, 3-{4-[(3-ethoxy-2-methylbenzyl)oxy]-3-fluorophenyl}propanoic acid]
O=C(O)CCc1ccc(OCc2ccccc2-c2ccccc2)c(Cl)c1 [Example 24, 4-([1,1′-Biphenyl]-2-ylmethoxy)-3-chlorobenzenepropanoic acid]
CCOc1cccc(COc2c(F)cc(CCC(=O)O)cc2F)c1 [Example 8, 4-[(3-Ethoxyphenyl)methoxy]-3,5-difluorobenzenepropanoic acid]
O=C(O)CCc1cc(F)c(OCc2cccc(OC3CCCC3)c2)c(F)c1 [Example 58, 3-(4-{[3-(cyclopentyloxy)benzyl]oxy}-3,5-difluorophenyl)propanoic acid]
O=C(O)CCc1cc(F)c(OCc2cccc(Oc3nccs3)c2)c(F)c1 [Example 68, 3-(3,5-difluoro-4-{[3-(1,3-thiazol-2-yloxy)benzyl]oxy}phenyl)propanoic acid]
O=C(O)CCc1cc(F)c(OC2CCc3ccccc32)c(F)c1 (centres unmarked) [Reference Example 14, 3,5-Difluoro-4-[(2,3-dihydro-1H-inden-1-yl)oxy]benzenepropanoic acid]
Cc1ccc2c(c1)C(Oc1ccc(CCC(=O)O)cc1)C(C)(C)C2 (centres unmarked) [Reference Example 50, 4-[(2,3-Dihydro-2,2,6-trimethyl-1H-inden-1-yl)oxy]benzenepropanoic acid]
CCOc1cc(COc2ccc(CCC(=O)O)cc2F)cc(OCC)c1 [Example 96, 3-{4-[(3,5-diethoxybenzyl)oxy]-3-fluorophenyl}propanoic acid]
O=C(O)CCc1ccc(OCc2cccc(-c3ccccc3)c2)c(Cl)c1 [Reference Example 18, 4-([1,1′-Biphenyl]-3-ylmethoxy)-3-chlorobenzenepropanoic acid]
O=C(O)CCc1cc(F)c(OCc2ccccc2Oc2ccccc2)c(F)c1 [Example 16, 3,5-Difluoro-4-[(2-phenoxyphenyl)methoxy]benzenepropanoic acid]
O=C(O)CCc1cc(F)c(OCc2cccc(Oc3ccccc3)c2)c(F)c1 [Example 2, 3,5-Difluoro-4-[(3-phenoxyphenyl)methoxy]benzenepropanoic acid]
